Results from patent publication US20140249135A1, “PIM KINASE INHIBITORS AND METHODS OF THEIR USE” (NOVARTIS AG, priority 2007, published 2014).
Like-named read-outs stand apart in the source and are kept apart here.

How the values were obtained:
Assay type in all cases: biochemical
Pim3 kinase = Pim3 kinase (Homo sapiens, UniProt Q86V86); assay: Pim3 ATP depletion assay
Pim2 kinase = Pim2 kinase (Homo sapiens, UniProt Q9P1W9); assay: Pim2 ATP depletion assay;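 note: Luciferase-based luminescent readout of ATP remaining after PIM2 phosphorylates a BAD peptide, final 5 nM enzyme, 4 µM ATP, 10 µM peptide, 2.5% DMSO, run to roughly half ATP consumption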
Pim2 kinase, sequence (Q9P1W9 whole entry): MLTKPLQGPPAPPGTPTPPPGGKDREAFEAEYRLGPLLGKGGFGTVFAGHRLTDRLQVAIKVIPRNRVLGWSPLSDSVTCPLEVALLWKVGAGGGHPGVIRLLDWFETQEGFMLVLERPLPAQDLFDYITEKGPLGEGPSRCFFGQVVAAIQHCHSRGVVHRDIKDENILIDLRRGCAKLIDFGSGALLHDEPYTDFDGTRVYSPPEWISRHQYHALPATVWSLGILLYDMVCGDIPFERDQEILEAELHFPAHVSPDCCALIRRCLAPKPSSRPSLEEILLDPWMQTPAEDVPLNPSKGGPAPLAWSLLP

Pim1 kinase = Pim1 kinase (Homo sapiens, UniProt P11309); assay: Pim1 ATP depletion assay;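 note: Luciferase-luciferin luminescence readout of residual ATP after PIM1 transfers phosphate to a peptide substrate, 40 µM ATP added, reaction run to roughly half ATP consumption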
Pim1 kinase, sequence (P11309 whole entry): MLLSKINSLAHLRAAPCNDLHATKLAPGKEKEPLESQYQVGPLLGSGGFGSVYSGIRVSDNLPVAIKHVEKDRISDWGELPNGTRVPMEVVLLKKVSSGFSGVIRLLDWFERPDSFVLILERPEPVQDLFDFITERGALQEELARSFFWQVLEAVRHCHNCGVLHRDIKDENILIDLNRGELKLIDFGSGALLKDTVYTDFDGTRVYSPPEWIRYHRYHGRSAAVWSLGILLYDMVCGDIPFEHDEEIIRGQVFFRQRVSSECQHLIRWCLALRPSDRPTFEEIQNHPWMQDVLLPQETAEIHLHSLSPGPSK

[1] = Pim1 ATP depletion assay, read-out: PIM1 IC50
[2] = Pim1 ATP depletion assay, read-out: IC50 (μM) PIM1

IC50 (Pim3 kinase; read-out: PIM3 IC50) [µM] | IC50 (Pim2 kinase; read-out: PIM2 IC50) [µM] | IC50 (Pim1 kinase; [1]) [µM] | IC50 (Pim3 kinase; read-out: IC50 (μM) PIM3) [µM] | IC50 (Pim2 kinase; read-out: IC50 (μM) PIM2) [µM] | IC50 (Pim1 kinase; [2]) [µM] | IC50 (Pim1 kinase) [µM] | Structure (SMILES)
< 1 | < 1 | < 1 | – | – | – | – | Cc1ccnc(-c2ccc(N)c(C(=O)Nc3cnccc3N3CCC[C@H](N)C3)n2)c1 [Example 724, 5-Amino-4′-methyl-[2,2′]bi-pyridinyl-6-carboxylic acid (3-amino-3,4,5,6-tetrahydro-2H-[1,4′]bipyridinyl-3′-yl)-amide]
– | – | – | < 1 | < 1 | < 1 | – | Nc1cnc(-c2c(F)cccc2F)nc1C(=O)Nc1cnccc1N1CCC[C@H](N)C1 [Example 270, 5-Amino-2-(2,6-difluoro-phenyl)-pyrimidine-4-carboxylic acid (3-amino-3,4,5,6-tetrahydro-2H-[1,4′]bipyridinyl-3′-yl)-amide]
< 1 | < 1 | < 1 | – | – | – | – | NC(=O)c1ccc(-c2ccc(N)c(C(=O)Nc3cnccc3N3CCC[C@H](N)C3)n2)nc1 [Example 691, 5′-Amino[2,2′]bipyridinyl-5,6′-dicarboxylic acid 5-amide 6′-[(3-amino-3,4,5,6-tetrahydro-2H-[1,4′]bipyridinyl-3′-yl)-amide]]
< 1 | < 1 | – | – | – | – | < 1 | Nc1nccc(-c2ccc(N)c(C(=O)Nc3cnccc3N3CCC[C@H](N)C3)n2)n1 [Example 728, 3-Amino-6-(2-amino-pyrimidin-4-yl)-pyridine-2-carboxylic acid (3-amino-3,4,5,6-tetrahydro-2H-[1,4′]bipyridinyl-3′-yl)-amide]
– | – | – | < 1 | < 1 | < 1 | – | CCCOc1ccc(F)c(-c2ccc(N)c(C(=O)Nc3cnccc3N3CCC[C@H](N)C3)n2)c1 [Example 468, 3-Amino-6-(2-fluoro-5-propoxy-phenyl)-pyridine-2-carboxylic acid (3-amino-3,4,5,6-tetrahydro-2H-[1,4′]bipyridinyl-3′-yl)-amide]
< 1 | < 1 | < 1 | – | – | – | – | Nc1ccc(-c2ccccn2)nc1C(=O)Nc1cnccc1N1CCC[C@H](N)C1 [Example 730, 5-Amino-[2,2′]bipyridinyl-6-carboxylic acid (3-amino-3,4,5,6-tetrahydro-2H-[1,4′]bi-pyridinyl-3′-yl)-amide]
– | – | – | < 1 | < 1 | < 1 | – | CC(C)NC(=O)c1ccc(F)c(-c2nc(C(=O)Nc3cnccc3N3CCC[C@H](N)C3)c(N)cc2F)c1 [Example 508, 3-Amino-5-fluoro-6-(2-fluoro-5-isopropylcarbamoyl-phenyl)-pyridine-2-carboxylic acid (3-amino-3,4,5,6-tetrahydro-2H-[1,4′]bipyridinyl-3′-yl)-amide]
< 1 | < 1 | < 1 | – | – | – | – | Nc1ccc(-c2cccc(C(F)(F)F)n2)nc1C(=O)Nc1cnccc1N1CCC[C@H](N)C1 [Example 718, 5-Amino-6′-trifluoromethyl-[2,2′]bipyridinyl-6-carboxylic acid (3-amino-3,4,5,6-tetra-hydro-2H-[1,4′]bipyridinyl-3′-yl)-amide]
– | – | – | < 1 | < 1 | < 1 | – | Nc1cc(-c2ccncc2NC(=O)c2cccc(-c3ccccc3)n2)nc(C(F)(F)F)n1 [Example 530, 6-Phenyl-pyridine-2-carboxylic acid [4-(6-amino-2-trifluoromethyl-pyrimidin-4-yl)-pyridin-3-yl]-amide]
< 1 | < 1 | < 1 | – | – | – | – | Cc1cc(-c2ccncc2NC(=O)c2nc(-c3cc(C(=O)NC(C)C)ccc3F)ccc2N)cc(N)n1 [Example 539, 3-Amino-6-(2-fluoro-5-isopropylcarbamoyl-phenyl)-pyridine-2-carboxylic acid (2′-amino-6′-methyl-[4,4′]bi-pyridinyl-3-yl)-amide]
– | – | – | < 1 | < 1 | < 1 | – | Nc1ccc(-c2ccc(Cl)cc2F)nc1C(=O)Nc1cnccc1N1CCC[C@H](N)C1 [Example 420, 3-amino-6-(4-chloro-2-fluoro-phenyl)-pyridine-2-carboxylic acid ((S)-3-amino-3,4,5,6-tetra-hydro-2H-[1,4′]bipyridinyl-3′-yl)-amide]
– | – | – | < 1 | < 1 | < 1 | – | Nc1cc(F)c(-c2ccncc2)nc1C(=O)Nc1cnccc1N1CCC[C@H](N)C1 [Example 513, 5-Amino-3-fluoro-[2,4′]bi-pyridinyl-6-carboxylic acid (3-amino-3,4,5,6-tetrahydro-2H-[1,4′]bipyridinyl-3′-yl)-amide]
< 1 | < 1 | – | – | – | – | < 1 | Nc1ccc(-c2c(F)cccc2F)nc1C(=O)Nc1cnccc1N1CC[C@H](O)[C@@H](N)C1 [Example 680, 3-Amino-6-(2,6-difluoro-phenyl)-pyridine-2-carboxylic acid (3-amino-4-hydroxy-3,4,5,6-tetrahydro-2H-[1,4′]bi-pyridinyl-3′-yl)-amide]
– | – | – | < 1 | < 1 | < 1 | – | CO[C@@H]1C[C@H](N)CN(c2ccncc2NC(=O)c2nc(C3CCCCC3)ccc2N)C1 [Example 285, 3-Amino-6-cyclohexyl-pyridine-2-carboxylic acid (3-amino-5-methoxy-3,4,5,6-tetrahydro-2H-[1,4′]bipyridinyl-3′-yl)-amide]
– | – | – | < 1 | < 1 | < 1 | – | CCOc1ccc(F)c(-c2nc(C(=O)Nc3cnccc3N3CCC[C@H](N)C3)c(N)cc2F)c1F [Example 495, 3-Amino-6-(3-ethoxy-2,6-difluoro-phenyl)-5-fluoro-pyridine-2-carboxylic acid (3-amino-3,4,5,6-tetrahydro-2H-[1,4′]bipyridinyl-3′-yl)-amide]
– | – | – | < 1 | < 1 | < 1 | – | CCOc1ccc(F)c(-c2ccc(N)c(C(=O)Nc3cnccc3N3CCC[C@H](N)C3)n2)c1F [Example 492, 3-Amino-6-(3-ethoxy-2,6-difluoro-phenyl)-pyridine-2-carboxylic acid (3-amino-3,4,5,6-tetrahydro-2H-[1,4′]bipyridinyl-3′-yl)-amide]
< 1 | < 1 | < 1 | – | – | – | – | Nc1nccc(-c2ccncc2NC(=O)c2nc(-c3c(F)cccc3F)ccc2N)n1 [Example 628, 3-amino-N-[4-(2-aminopyrimidin-4-yl)pyridin-3-yl]-6-(2,6-difluorophenyl)pyridine-2-carboxamide]
– | – | – | < 1 | < 1 | < 1 | – | Cc1nc(N)cc(-c2ccncc2NC(=O)c2nc(-c3c(F)cccc3F)ccc2N)n1 [Example 274, 3-Amino-6-(2,6-difluoro-phenyl)-pyridine-2-carboxylic acid [4-(6-amino-2-methyl-pyrimidin-4-yl)-pyridin-3-yl]-amide]
< 1 | < 1 | < 1 | – | – | – | – | Nc1cnc(-c2ccccc2)nc1C(=O)Nc1cnccc1N1CC[C@@H](O)[C@H](N)C1 (stereo in doubt) [Example 670, 5-Amino-2-phenyl-pyrimidine-4-carboxylic acid (3-amino-4-hydroxy-3,4,5,6-tetrahydro-2H-[1,4′]bipyridinyl-3′-yl)-amide]
< 1 | < 1 | < 1 | – | – | – | – | CC(C)NC(=O)c1ccc(F)c(-c2ccc(N)c(C(=O)Nc3cnccc3-c3cc(N)nc(C(F)(F)F)n3)n2)c1 [Example 554, 3-Amino-6-(2-fluoro-5-isopropylcarbamoyl-phenyl)-pyridine-2-carboxylic acid [4-(6-amino-2-trifluoromethyl-pyrimidin-4-yl)-pyridin-3-yl]-amide]
– | – | – | < 1 | < 1 | < 1 | – | COc1cc(-c2ccc(N)c(C(=O)Nc3cnccc3N3CCC[C@H](N)C3)n2)cnc1N [Example 416, 5,6′-diamino-5′-methoxy-[2,3′]bi-pyridinyl-6-carboxylic acid ((S)-3-amino-3,4,5,6-tetrahydro-2H-[1,4′]bipyridinyl-3′-yl)-amide]
< 1 | < 1 | < 1 | – | – | – | – | CC(C)NC(=O)c1ccc(F)c(-c2ccc(N)c(C(=O)Nc3cnccc3N3CC[C@@H](N)[C@H](O)C3)n2)c1 [Example 668, 3-Amino-6-(2-fluoro-5-isopropylcarbamoyl-phenyl)-pyridine-2-carboxylic acid (4-amino-3-hydroxy-3,4,5,6-tetra-hydro-2H-[1,4′]bipyridinyl-3′-yl)-amide]
< 1 | < 1 | < 1 | – | – | – | – | CCc1cc(-c2ccncc2NC(=O)c2nc(-c3c(F)cccc3F)ccc2N)cc(N)n1 [Example 620, 3-Amino-6-(2,6-difluoro-phenyl)-pyridine-2-carboxylic acid (6′-amino-2′-ethyl-[4,4′]bipyridinyl-3-yl)-amide]
< 1 | < 1 | < 1 | – | – | – | – | Cc1nc(N)cc(-c2ccncc2NC(=O)c2nc(-c3cc(C(=O)N(C)C)ccc3F)c(F)cc2N)n1 [Example 561, 3-Amino-6-(5-dimethylcarbamoyl-2-fluoro-phenyl)-5-fluoro-pyridine-2-carboxylic acid [4-(6-amino-2-methyl-pyrimidin-4-yl)-pyridin-3-yl]-amide]
– | – | – | < 1 | < 1 | < 1 | – | CC(C)NC(=O)c1ccc(F)c(-c2ccc(N)c(C(=O)Nc3cnccc3N3CCC[C@H](N)C3)n2)c1F [Example 503, 3-Amino-6-(2,6-difluoro-3-isopropylcarbamoyl-phenyl)-pyridine-2-carboxylic acid (3-amino-3,4,5,6-tetrahydro-2H-[1,4′]bipyridinyl-3′-yl)-amide]
< 1 | < 1 | < 1 | – | – | – | – | Nc1ccc(-c2ccc(CN3CCOCC3)cc2)nc1C(=O)Nc1cnccc1N1CCC[C@H](N)C1 [Example 567, 3-Amino-6-(4-morpholin-4-ylmethyl-phenyl)-pyridine-2-carboxylic acid (3-amino-3,4,5,6-tetrahydro-2H-[1,4′]bipyridinyl-3′-yl)-amide]
